Measured values: patent US20060223879A1, “Non-steroidal farnesoid x receptor modulators” (priority 2002, published 2006)
Values joined by “and” are separate entries in the source; they are usually repeats but may differ in a detail not shown here. Equal entries are not always repeated. “Also recorded” adds a separate entry of the source. Where two headings read alike, the source gives them in different places.

Biological target: T1, FXR (Homo sapiens, UniProt Q96RI1)
T1 construct: using a full length FXR on a natural response element; expressed in transfected cells
T1 sequence (Q96RI1 1-486): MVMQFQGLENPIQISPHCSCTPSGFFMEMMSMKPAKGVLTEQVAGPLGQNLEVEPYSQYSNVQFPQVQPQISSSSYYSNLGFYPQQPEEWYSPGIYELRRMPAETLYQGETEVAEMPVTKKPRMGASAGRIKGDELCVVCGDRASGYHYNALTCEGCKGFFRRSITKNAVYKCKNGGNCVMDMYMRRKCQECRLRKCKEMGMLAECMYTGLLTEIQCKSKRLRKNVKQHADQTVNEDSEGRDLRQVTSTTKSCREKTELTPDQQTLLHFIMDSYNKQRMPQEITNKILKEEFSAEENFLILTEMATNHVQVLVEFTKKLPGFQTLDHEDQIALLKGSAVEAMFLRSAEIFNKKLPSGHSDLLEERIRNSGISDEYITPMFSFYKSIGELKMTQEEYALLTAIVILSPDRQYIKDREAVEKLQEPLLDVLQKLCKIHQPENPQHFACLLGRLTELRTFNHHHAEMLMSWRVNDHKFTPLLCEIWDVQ
Assay: cell-based transcription assay, FXR responsive promoter linked to a luciferase reporter
Design: RE: scale not given here
Conditions: for RE: RE not defined in the source
Source text: In addition to ensuring that only cell permeable compounds were selected for further optimization, this approach allows for the detection of FXR activation in a natural system (i.e., correct folding of the protein and in the presence of a complete compliment of co-activators and co-repressors).
The feasibility of creating high throughput screens (XIS) for ORs was explored using FXR as a candidate orphan receptor (OR) with a known activator, chenodeoxycholic acid (CDCA) as a ligand. The screen is based on the co-transfection of a full-length receptor with the reporter vector containing a natural hormone response element under a minimal eukaryotic promoter. […] Using this 384-well format, the high throughput screening (HTS) approach to FXR as a candidate OR was employed. […] A central question in the feasibility studies is whether this library is suitable for screening for nuclear receptor ligands. Samples of this library were first reformatted into a 384-well format and then subjected to the FXR cell-based assays described above and assessed for FXR-mediated transcriptional activity. Cells were exposed to approximately 10 μM of sample for 18 hrs prior to washing and luciferase analysis.
EC50 values were determined with Prism 3.0 software via the activity of the subject compound in the previously described cell based assay.

[1] = library screening hits and leads, read-out: activity (EC50)
[2] = FXR activation, cell-based reporter assay, read-out: EC50
[3] = Tables 1-15, FXR activation, cell-based reporter assay, read-out: EC50

**Q.** With `COC(=O)/C=C/c1cccc(N(Cc2ccc3c(c2OC)OC(C)(C)[C@@H](OC(C)=O)[C@H]3OC(C)=O)C(=O)c2ccccc2)c1` (relative stereo) [Compound 95] as the compound, how does the “FXR activation (in words)” value (cell-based reporter assay) read?
**A.** Nor did the addition of H-bond acceptors such as in 89, 90, 95, 99 and 101 improve the ability of the parent compound 68 to activate FXR

**Q.** How did the EC50 [1] turn out when `COc1cc(CN(CC(C)C)C(=O)C2CCCCC2)cc2c1OC(C)(C)C=C2` [Compound 16] was run?
**A.** 5 to 10 µM

**Q.** With `COc1c(CN(C(=O)c2ccccc2C(=O)O)c2ccncc2)ccc2c1OC(C)(C)C=C2` [Compound 17] as the compound, how does the EC50 [1] read?
**A.** 5 to 10 µM

**Q.** Which EC50 [1] does the source give for `COc1cc(CN(Cc2ccccc2)C(=O)NC2CCCC2)cc2c1OC(C)(C)C=C2` [Compound 18] here?
**A.** 5 to 10 µM

**Q.** For `COc1c(CN(C(=O)C2CCCCC2)C(C)C)ccc2c1OC(C)(C)C=C2` [Compound 19], which EC50 [1] is on record?
**A.** 5 to 10 µM

**Q.** How did the EC50 [1] turn out when `COc1cc(CN(CC(C)C)C(=O)c2ccccc2)cc2c1OC(C)(C)C=C2` [Compound 20] was run?
**A.** 5 to 10 µM

**Q.** How did the EC50 [1] turn out when `COc1c(CN(C(=O)CC(C)C)C(C)C)ccc2c1OC(C)(C)C=C2` [Compound 21] was run?
**A.** 5 to 10 µM

**Q.** Which EC50 [1] does the source give for `COc1c(CN(C(=O)c2ccccc2C(=O)O)c2ccccc2)ccc2c1OC(C)(C)C=C2` [Compound 22] here?
**A.** 5 to 10 µM

**Q.** How did the EC50 [1] turn out when `COc1c(CN(Cc2ccccc2)C(=O)C2CC2)ccc2c1OC(C)(C)C=C2` [Compound 23] was run?
**A.** 5 to 10 µM

**Q.** How did the EC50 [1] turn out when `COc1cc(CN(C(=O)CC(C)C)c2ccccc2)cc2c1OC(C)(C)C=C2` [Compound 24] was run?
**A.** 5 to 10 µM

**Q.** Which EC50 [1] does the source give for `COc1cc(CN(C(=O)Nc2ccccc2)c2ccccc2)cc2c1OC(C)(C)C=C2` [Compound 25] here?
**A.** 5 to 10 µM

**Q.** Which results are given for `COc1c(CN(C(=O)C2CC2)c2ccccc2)ccc2c1OC(C)(C)C=C2` [Compound 26]?
**A.** FXR activation (in words) (cell-based reporter assay): among the most active at this stage; EC50 [1]: 5 to 10 µM

**Q.** With `COc1c(CN(C(=O)C2CCCCC2)c2ccccc2)ccc2c1OC(C)(C)C=C2` [Compound 27] as the compound, how does the “FXR activation (in words)” value (cell-based reporter assay) read?
**A.** among the most active at this stage

**Q.** And the EC50 [1]?
**A.** 5 to 10 µM

**Q.** `COC(=O)/C=C/c1cccc(N(Cc2ccc3c(c2OC)OC(C)(C)C=C3)C(=O)C2CC2)c1` [Compound 29] was tested. Which “FXR activation (in words)” value (cell-based reporter assay) did it give?
**A.** substantially better activator of FXR than compound 26; also recorded: capable of activating FXR to a significant extent

**Q.** For `CCOC(=O)/C=C/c1cccc(N(Cc2ccc3c(c2OC)OC(C)(C)C=C3)C(=O)C2CC2)c1` [Compound 30], which “FXR activation (in words)” value (cell-based reporter assay) is on record?
**A.** inactive

**Q.** How did the “FXR activation (in words)” value (cell-based reporter assay) turn out when `COC/C=C/c1cccc(N(Cc2ccc3c(c2OC)OC(C)(C)C=C3)C(=O)C2CC2)c1` [Compound 33] was run?
**A.** capable of activating FXR to a significant extent

**Q.** With `COc1c(CN(C(=O)C2CC2)c2cccc(/C=C/C#N)c2)ccc2c1OC(C)(C)C=C2` [Compound 34] as the compound, how does the “FXR activation (in words)” value (cell-based reporter assay) read?
**A.** inactive

**Q.** Which “FXR activation (in words)” value (cell-based reporter assay) does the source give for `CNC(=O)/C=C/c1cccc(N(Cc2ccc3c(c2OC)OC(C)(C)C=C3)C(=O)C2CC2)c1` [Compound 38] here?
**A.** inactive

**Q.** `COC(=O)/C=C/c1ccc(N(Cc2ccc3c(c2OC)OC(C)(C)C=C3)C(=O)C2CC2)cc1` [Compound 53] was tested. Which “FXR activation (in words)” value (cell-based reporter assay) did it give?
**A.** does not activate FXR under the conditions tested

**Q.** What does the source list for `COC(=O)/C=C/c1cccc(N(Cc2ccc3c(c2OC)OC(C)(C)C=C3)C(=O)C2CCCCC2)c1` [Compound 65]?
**A.** EC50 [2]: 0.358 µM and 0.348 µM; RE (Tables 1-15): 0.40

**Q.** Which results are given for `COC(=O)/C=C/c1cccc(N(Cc2ccc3c(c2OC)OC(C)(C)C=C3)C(=O)c2ccccc2)c1` [Compound 68]?
**A.** EC50 [2]: 1 µM; EC50 [3]: > 1 µM; RE (Tables 1-15): 0.83

**Q.** `COC(=O)/C=C/c1cccc(N(Cc2ccccc2)Cc2ccc3c(c2OC)OC(C)(C)C=C3)c1` [Compound 78] was tested. Which “FXR activation (in words)” value (cell-based reporter assay) did it give?
**A.** inactive

**Q.** How did the “FXR activation (in words)” value (cell-based reporter assay) turn out when `COC(=O)/C=C/c1cccc(N(C)Cc2ccc3c(c2OC)OC(C)(C)C=C3)c1` [Compound 79] was run?
**A.** inactive

**Q.** How did the “FXR activation (in words)” value (cell-based reporter assay) turn out when `COC(=O)/C=C/c1cccc(N(Cc2ccc3c(c2OC)OC(C)(C)C=C3)S(=O)(=O)c2ccc(C)cc2)c1` [Compound 82] was run?
**A.** inactive

**Q.** For `COC(=O)/C=C/c1cccc(N(Cc2ccc3c(c2OC)OC(C)(C)C=C3)C(=S)C2CC2)c1` [Compound 83], which “FXR activation (in words)” value (cell-based reporter assay) is on record?
**A.** inactive

**Q.** `COC(=O)/C=C/c1cccc(N(Cc2ccc3c(c2OC)OC(C)(C)C=C3)C(=S)NCc2ccccc2)c1` [Compound 84] was tested. Which “FXR activation (in words)” value (cell-based reporter assay) did it give?
**A.** inactive

**Q.** With `COC(=O)/C=C/c1cccc(N(Cc2ccc3c(c2OC)OC(C)(C)C=C3C(=O)O)C(=O)c2ccccc2)c1` [Compound 86] as the compound, how does the “FXR activation (in words)” value (cell-based reporter assay) read?
**A.** did not improve the activity

**Q.** Which “FXR activation (in words)” value (cell-based reporter assay) does the source give for `COC(=O)/C=C/c1cccc(N(Cc2ccc3c(c2OC)OC(C)(C)CC3=O)C(=O)c2ccccc2)c1` [Compound 89] here?
**A.** Nor did the addition of H-bond acceptors such as in 89, 90, 95, 99 and 101 improve the ability of the parent compound 68 to activate FXR

**Q.** For `COC(=O)/C=C/c1cccc(N(Cc2ccc3c(c2OC)OC(C)(C)C(C)C3=O)C(=O)c2ccccc2)c1` (centres unmarked) [Compound 90], which “FXR activation (in words)” value (cell-based reporter assay) is on record?
**A.** Nor did the addition of H-bond acceptors such as in 89, 90, 95, 99 and 101 improve the ability of the parent compound 68 to activate FXR

**Q.** For `COC(=O)/C=C/c1cccc(N(Cc2ccc3c(c2OC)OC(C)(C)[C@@H](O)[C@H]3O)C(=O)c2ccccc2)c1` [Compound 93], which “FXR activation (in words)” value (cell-based reporter assay) is on record?
**A.** did not improve the activity

**Q.** For `COC(=O)C=Cc1cccc(N(Cc2ccc3c(c2OC)OC(C)(C)C(O)C3O)C(=O)c2ccccc2)c1` (centres unmarked) [Compound 94], which “FXR activation (in words)” value (cell-based reporter assay) is on record?
**A.** did not improve the activity

**Q.** For `COC(=O)C=Cc1cccc(N(Cc2ccc3c(c2OC)OC(C)(C)C(O)C3Sc2ccccc2)C(=O)c2ccccc2)c1` (centres unmarked) [Compound 98], which “FXR activation (in words)” value (cell-based reporter assay) is on record?
**A.** did not improve the activity

**Q.** For `COC(=O)C=Cc1cccc(N(Cc2ccc3c(c2OC)OC(C)(C)C(OC(C)=O)C3Sc2ccccc2)C(=O)c2ccccc2)c1` (centres unmarked) [Compound 99], which “FXR activation (in words)” value (cell-based reporter assay) is on record?
**A.** Nor did the addition of H-bond acceptors such as in 89, 90, 95, 99 and 101 improve the ability of the parent compound 68 to activate FXR

**Q.** `COC(=O)C=Cc1cccc(N(Cc2ccc3c(c2OC)OC(C)(C)C(O)C3N2CCCCC2)C(=O)c2ccccc2)c1` (centres unmarked) [Compound 100] was tested. Which “FXR activation (in words)” value (cell-based reporter assay) did it give?
**A.** did not improve the activity

**Q.** How did the “FXR activation (in words)” value (cell-based reporter assay) turn out when `COC(=O)C=Cc1cccc(N(Cc2ccc3c(c2OC)OC(C)(C)C(OC(C)=O)C3N2CCCCC2)C(=O)c2ccccc2)c1` (centres unmarked) [Compound 101] was run?
**A.** Nor did the addition of H-bond acceptors such as in 89, 90, 95, 99 and 101 improve the ability of the parent compound 68 to activate FXR

**Q.** How did the EC50 [2] turn out when `COC(=O)/C=C/c1cccc(N(Cc2ccc3c(c2OC)OC(C)(C)C2C3C2(Cl)Cl)C(=O)c2ccccc2)c1` (centres unmarked) [Compound 102] was run?
**A.** 0.333 µM

**Q.** What about the RE (Tables 1-15) of the same compound?
**A.** 0.64

**Q.** Which EC50 [3] does the source give for `COC(=O)C=Cc1cccc(N(Cc2ccc(C=CC(=O)O)cc2)C(=O)C2CCCCC2)c1` [Compound 104] here?
**A.** > 1 µM

**Q.** What about the RE (Tables 1-15) of the same compound?
**A.** 0.08

**Q.** Which results are given for `COC(=O)/C=C/c1cccc(N(Cc2ccc(/C=C/C(=O)OC(C)(C)C)cc2)C(=O)C2CCCCC2)c1` [Compound 105]?
**A.** EC50 [2]: 0.127 µM and 0.127 to 0.25 µM; RE (Tables 1-15): 2.12

**Q.** For `COC(=O)/C=C/c1cccc(N(Cc2cccc(/C=C/C(=O)OC(C)(C)C)c2)C(=O)C2CCCCC2)c1` [Compound 107], which “FXR activation (in words)” value (cell-based reporter assay) is on record?
**A.** only micromolar potency

**Q.** `COC(=O)/C=C/c1cccc(N(Cc2ccccc2/C=C/C(=O)OC(C)(C)C)C(=O)C2CCCCC2)c1` [Compound 109] was tested. Which “FXR activation (in words)” value (cell-based reporter assay) did it give?
**A.** only micromolar potency

**Q.** Which results are given for `COC(=O)/C=C/c1cccc(N(Cc2ccccc2)C(=O)C2CCCCC2)c1` [Compound 110]?
**A.** EC50 [3]: > 1 µM; RE (Tables 1-15): 0.09; FXR activation (in words) (cell-based reporter assay): inactive

**Q.** How did the EC50 [2] turn out when `COC(=O)/C=C/c1cccc(N(C(=O)C2CCCCC2)c2ccc3ccccc3c2)c1` [Compound 111] was run?
**A.** 0.68 µM

**Q.** And the RE (Tables 1-15)?
**A.** 0.41
